Data on 16 molecules can be found in ChEMBL document CHEMBL1142279, “Optimization of 2,3,5-trisubstituted pyridine derivatives as potent allosteric Akt1 and Akt2 inhibitors” (Bioorg Med Chem Lett, 2008).

For orientation: IC50 means the concentration at which inhibition is half-maximal. Low values mean greater potency in that assay, high ones weaker potency in that assay. What is called half-life is how long it takes for the measured level to halve. High values mean slow decline, low ones rapid decline. The term clearance denotes the volume of plasma or blood freed of the substance per unit of time. The low end stands for a low capacity for elimination, the high end for a high capacity for elimination.

Structures are written as SMILES. Where only a bound is given, the exact number is not on record here.

The target of data set [1] is RAC-alpha serine/threonine-protein kinase (Homo sapiens) (UniProt P31749). The experiment in a line: Inhibition of human recombinant Akt1.
Sequence of RAC-alpha serine/threonine-protein kinase (Homo sapiens) (P31749 whole entry): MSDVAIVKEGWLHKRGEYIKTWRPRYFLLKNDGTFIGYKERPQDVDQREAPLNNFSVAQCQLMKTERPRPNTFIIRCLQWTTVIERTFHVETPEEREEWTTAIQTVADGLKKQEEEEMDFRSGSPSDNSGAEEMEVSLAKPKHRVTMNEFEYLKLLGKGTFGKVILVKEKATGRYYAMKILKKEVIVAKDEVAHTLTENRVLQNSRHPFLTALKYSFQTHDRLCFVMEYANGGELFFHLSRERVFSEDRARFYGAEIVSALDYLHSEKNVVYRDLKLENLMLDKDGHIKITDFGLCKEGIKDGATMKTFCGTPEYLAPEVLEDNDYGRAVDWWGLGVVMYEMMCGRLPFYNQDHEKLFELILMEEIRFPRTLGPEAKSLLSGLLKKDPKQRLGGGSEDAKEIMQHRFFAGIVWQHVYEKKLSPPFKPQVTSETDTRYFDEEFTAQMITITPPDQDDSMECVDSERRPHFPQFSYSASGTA
Data set [2] has as its target RAC-beta serine/threonine-protein kinase (Homo sapiens) (UniProt P31751). Kind of data set: Inhibition of human recombinant Akt2.
The target of data set [3] is RAC-alpha serine/threonine-protein kinase (Homo sapiens) (UniProt P31749). Kind of data set: Inhibition of Akt1 in human C33a cells. The data set is classed as cell-based.
The target of data set [4] is RAC-beta serine/threonine-protein kinase (Homo sapiens) (UniProt P31751). Kind of data set: Inhibition of Akt2 in human C33a cells. The data set is classed as cell-based.
Sequence of RAC-beta serine/threonine-protein kinase (Homo sapiens) (P31751 whole entry): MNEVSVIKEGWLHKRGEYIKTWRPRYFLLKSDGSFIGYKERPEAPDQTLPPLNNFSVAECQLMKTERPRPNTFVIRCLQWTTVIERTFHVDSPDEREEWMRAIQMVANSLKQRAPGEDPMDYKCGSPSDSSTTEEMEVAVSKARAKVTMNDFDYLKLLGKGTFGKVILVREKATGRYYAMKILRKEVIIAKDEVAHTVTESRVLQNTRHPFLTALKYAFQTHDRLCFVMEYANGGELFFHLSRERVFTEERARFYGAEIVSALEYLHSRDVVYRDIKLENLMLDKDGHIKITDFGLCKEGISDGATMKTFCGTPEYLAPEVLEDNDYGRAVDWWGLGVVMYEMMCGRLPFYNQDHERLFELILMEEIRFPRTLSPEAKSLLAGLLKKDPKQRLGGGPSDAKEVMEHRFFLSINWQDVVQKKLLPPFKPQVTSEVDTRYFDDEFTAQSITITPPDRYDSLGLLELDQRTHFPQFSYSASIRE
A short description of data set [5]: Inhibition of SGK.
Data set [6] deals with RAC-gamma serine/threonine-protein kinase (Homo sapiens) (UniProt Q9Y243). Kind of data set: Inhibition of human recombinant Akt3.
Sequence of RAC-gamma serine/threonine-protein kinase (Homo sapiens) (Q9Y243 whole entry): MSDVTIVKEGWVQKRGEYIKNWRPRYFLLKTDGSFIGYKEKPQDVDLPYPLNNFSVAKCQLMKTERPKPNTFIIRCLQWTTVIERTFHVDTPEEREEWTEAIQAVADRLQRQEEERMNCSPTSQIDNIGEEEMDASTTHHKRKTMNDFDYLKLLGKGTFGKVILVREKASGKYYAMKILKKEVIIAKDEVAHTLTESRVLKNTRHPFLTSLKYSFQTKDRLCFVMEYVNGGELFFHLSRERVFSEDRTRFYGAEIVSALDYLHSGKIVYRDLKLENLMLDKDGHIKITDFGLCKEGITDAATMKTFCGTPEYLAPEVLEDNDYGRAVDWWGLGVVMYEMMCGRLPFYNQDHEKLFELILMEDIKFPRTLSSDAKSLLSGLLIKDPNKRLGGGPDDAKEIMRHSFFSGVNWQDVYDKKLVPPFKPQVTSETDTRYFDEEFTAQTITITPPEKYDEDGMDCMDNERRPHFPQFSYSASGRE
Data set [7] can be described thus: Inhibition of PKA.
Data set [8] is described as follows: Inhibition of PKC.
Data set [9] addresses Protein kinase C alpha type (Homo sapiens) (UniProt P17252). The experiment in a line: Inhibition of PKCalpha.
The nature of data set [10]: Half life in dog at 0.25 mg/kg, iv. Particulars: in vivo. The data set is classed as ADME, organism-based, Canis lupus familiaris. Further details: dose 0.25 mg/kg, route intravenous.
The nature of data set [11]: Clearance in dog at 0.25 mg/kg, iv. The data set is classed as ADME, organism-based, Canis lupus familiaris. Further details: dose 0.25 mg/kg, route intravenous. Particulars: in vivo.
The nature of data set [12]: Volume of distribution at steady state in dog at 0.25 mg/kg, iv. The data set is classed as ADME, organism-based, Canis lupus familiaris. Further details: dose 0.25 mg/kg, route intravenous. The conditions noted are these: in vivo, read-out: Vdss.

Regarding `Nc1nnc(-c2cnc(-c3ccc(CN4CCC(c5cc(-c6ccncc6)[nH]n5)CC4)cc3)c(-c3ccccc3)c2)s1`, the Activity was determined as 123 nM in [1], 38 nM in [2], 407 nM in [3] and 153 nM in data set [4]. In [5], this molecule gave an IC50 of more than 50 µM.
`Nc1ncnc2c1cnn2C1CCN(Cc2ccc(-c3ncc(-c4nccs4)cc3-c3ccccc3)cc2)CC1`: the Activity in [1] was determined as 264 nM; in data set [2] it was 64 nM; in [3] it was 1650 nM; in data set [4] it was 3240 nM. This molecule also showed an IC50 in [5] of more than 50 µM.
With `O=c1[nH]c2ccccc2n1C1CCN(Cc2ccc(-c3ncc(-c4nnn[nH]4)cc3-c3ccccc3)cc2)CC1`, the Activity in [1] is 273 nM; in data set [2], 150 nM; in data set [6] it was more than 50 µM; in data set [3], more than 50000 nM; in data set [4], more than 50000 nM.
In the case of `Nc1ncnc2c1cnn2C1CCN(Cc2ccc(-c3ncc(-c4ncon4)cc3-c3ccccc3)cc2)CC1`, the Activity in data set [1] is 180 nM; in [2], 121 nM; in data set [3], 288 nM; in data set [4], 1060 nM. The molecule also gave an IC50 in data set [5] of more than 50 µM.
On to `Nc1nnc(-c2cnc(-c3ccc(CN4CCC(c5n[nH]c(-c6ccccn6)n5)CC4)cc3)c(-c3ccccc3)c2)s1`, for which the Activity in data set [1] was found to be 85 nM; in data set [2], 22 nM; in data set [3], 516 nM; in [4] it was 330 nM. Further, the IC50 in [5] was more than 50 µM.
As to `Nc1nnc(-c2cnc(-c3ccc(CNCCC(=O)c4ccccc4N)cc3)c(-c3ccccc3)c2)s1`, the Activity in [1] amounted to 114 nM; in [2] it was 30 nM; in data set [3], 618 nM; in [4], 472 nM.
As for `Nc1nnc(-c2cnc(-c3ccc(CN4CCC(n5ncc6c(N)ncnc65)CC4)cc3)c(-c3ccccc3)c2)s1`, the Activity was found to be 126 nM in data set [1], 22 nM in data set [2], 621 nM in [3] and 416 nM in data set [4]. Also, the 50% inhibitory concentration (IC50) is more than 10 µM in data set [7], more than 10 µM in data set [8], more than 10 µM in [9] and more than 50 µM in [5]. In addition, the half-life in [10] is 3.62 h. The same molecule returned a clearance in data set [11] of 1.37 mL/min/kg. In addition, the Vd in data set [12] turned out to be 0.41 L/kg.
Turning to `Nc1nnc(-c2cnc(-c3ccc(CN4CCC(n5cc(-c6ccccn6)cn5)CC4)cc3)c(-c3ccccc3)c2)s1`, the Activity in data set [1] was found to be 214 nM; in [2] it was 90 nM; in [3] it was 1350 nM; in data set [4], 1350 nM. Also, in data set [5], the half-maximal inhibitory concentration (IC50) was more than 50 µM.
For the molecule `Nc1nnc(-c2cnc(-c3ccc(CN4CCC(n5cc(-c6cnccn6)cn5)CC4)cc3)c(-c3ccccc3)c2)s1`, the Activity in data set [1] stood at 172 nM; in data set [2], 51 nM; in data set [3] it was 1380 nM; in [4], 2030 nM. Moreover, the IC50 in [5] was more than 50 µM.
`N#Cc1cnc(-c2ccc(CN3CCC(n4c(=O)[nH]c5ccccc54)CC3)cc2)c(-c2ccccc2)c1`: the Activity in data set [1] was 762 nM; in [2], 3140 nM; in data set [6] it was more than 50 µM; in data set [3] it was more than 50000 nM; in [4] it was more than 50000 nM.
Consider `Nc1ncnc2c1cnn2C1CCN(Cc2ccc(-c3ncc(-c4ccccn4)cc3-c3ccccc3)cc2)CC1`, for which the Activity is 1630 nM in [1], 370 nM in [2], 10000 nM in data set [3] and 8110 nM in data set [4].
Take `Nc1nnc(-c2cnc(-c3ccc(CN4CCC(n5c(=O)[nH]c6ncccc65)CC4)cc3)c(-c3ccccc3)c2)s1`: the Activity was 434 nM in [1], 73 nM in [2], 12600 nM in [3] and 3960 nM in data set [4]. Further, in [5], the 50% inhibitory concentration (IC50) is more than 50 µM.
On to `Nc1ncnc2c1ncn2C1CCN(Cc2ccc(-c3ncc(-c4nnn[nH]4)cc3-c3ccccc3)cc2)CC1`, for which the Activity in data set [1] was 210 nM; in [2], 105 nM; in data set [6], more than 50 µM; in [3] it was more than 50000 nM; in [4], more than 50000 nM.
For `Nc1nnc(-c2cnc(-c3ccc(CN4CCC(c5cc(-c6ccccn6)[nH]n5)CC4)cc3)c(-c3ccccc3)c2)s1`, the Activity is 95 nM in data set [1], 28 nM in data set [2], 734 nM in [3] and 300 nM in [4]. Further, in [5], the 50% inhibitory concentration (IC50) is more than 50 µM.
Regarding `Nc1ncnc2c1cnn2C1CCN(Cc2ccc(-c3ncc(-c4ncccn4)cc3-c3ccccc3)cc2)CC1`, the Activity in data set [1] was 306 nM; in data set [2], 62 nM; in data set [3], 1950 nM; in data set [4], 3460 nM. In data set [5], this molecule registered an IC50 of more than 50 µM.
With `Nc1ncnc2c1cnn2C1CCN(Cc2ccc(-c3ncc(-c4nc[nH]n4)cc3-c3ccccc3)cc2)CC1`, the Activity amounted to 182 nM in data set [1], 101 nM in [2], 890 nM in [3] and 666 nM in data set [4]. The same molecule returned an IC50 in [5] of more than 50 µM.
